In patent US20250236607A1, “CYCLIN-DEPENDENT KINASE 9 (CDK9) DEGRADERS AND METHODS OF USING THEREOF” (OHIO STATE INNOVATION FOUNDATION, priority 2022, published 2025):
Values after ≈ are worked out from the molar mass of the structure shown. Values joined by “and” are separate entries in the source; they are usually repeats but may differ in a detail not shown here. Equal entries are not always repeated. Where two headings read alike, the source gives them in different places.

How the values were obtained:
MV411 cells = experiment: MTS cytotoxicity assay against MV411 cells; type: cell-based
Procedure: (§1) The obtained compounds were tested in biological experiments to measure their potency in inhibiting the growth of AML cells and in their degradation of CDK9. These measurements are reported as half-maximum growth inhibitory and half-maximum degradation concentrations, IC50s and DC50s, respectively. Maximum percent degradation (Dmax) values were also obtained during the CDK9 degradation assessments. The common MTS assay was used to acquire the IC50 values, while the DC50 values were obtained using an automated western blot experiment. These values are presented in Table 2, along with pIC50 (log(nM IC50)) to more accurately reflect the differences/lack thereof in in vitro cytotoxicity. The notation “N:N*” represents the number of linker atoms on each side of the rigid triazole ring for a given degrader. Predicted log D values, calculated using the ChemAxon […], are also provided for each degrader. To characterize the physicochemical properties of the new degrader series, two additional assays were performed: a kinetic aqueous solubility assay and the chromatographic log D experiment described earlier. Aqueous solubility is shown in μM while experimentally determined log D is shown as log k′80. Details regarding the execution of each experiment are provided below.

CDK9 [1] = molecular target: T1, CDK9 (Homo sapiens, UniProt P50750+Q96SW2); experiment: CDK9 degradation, automated western blot, triazole-containing AT7519 degraders (MV411); type: cell-based; conditions: for DC50: CDK9 degradation, MV411 cells; for Dmax (%) / Dmax: maximum percent CDK9 degradation; for Dmax: MV4-11
T1 construct: endogenous in cells
T1 sequence (P50750 whole entry): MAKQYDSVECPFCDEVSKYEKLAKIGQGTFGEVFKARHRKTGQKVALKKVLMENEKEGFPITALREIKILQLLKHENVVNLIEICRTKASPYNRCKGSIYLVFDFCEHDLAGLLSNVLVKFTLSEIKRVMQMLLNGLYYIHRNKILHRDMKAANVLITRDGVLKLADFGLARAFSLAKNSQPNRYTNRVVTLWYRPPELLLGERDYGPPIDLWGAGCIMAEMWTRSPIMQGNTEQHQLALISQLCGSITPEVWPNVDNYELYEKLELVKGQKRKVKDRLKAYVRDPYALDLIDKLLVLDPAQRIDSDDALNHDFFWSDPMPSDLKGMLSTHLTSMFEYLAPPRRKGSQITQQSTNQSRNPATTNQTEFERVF
T1 sequence (O60563 whole entry partner): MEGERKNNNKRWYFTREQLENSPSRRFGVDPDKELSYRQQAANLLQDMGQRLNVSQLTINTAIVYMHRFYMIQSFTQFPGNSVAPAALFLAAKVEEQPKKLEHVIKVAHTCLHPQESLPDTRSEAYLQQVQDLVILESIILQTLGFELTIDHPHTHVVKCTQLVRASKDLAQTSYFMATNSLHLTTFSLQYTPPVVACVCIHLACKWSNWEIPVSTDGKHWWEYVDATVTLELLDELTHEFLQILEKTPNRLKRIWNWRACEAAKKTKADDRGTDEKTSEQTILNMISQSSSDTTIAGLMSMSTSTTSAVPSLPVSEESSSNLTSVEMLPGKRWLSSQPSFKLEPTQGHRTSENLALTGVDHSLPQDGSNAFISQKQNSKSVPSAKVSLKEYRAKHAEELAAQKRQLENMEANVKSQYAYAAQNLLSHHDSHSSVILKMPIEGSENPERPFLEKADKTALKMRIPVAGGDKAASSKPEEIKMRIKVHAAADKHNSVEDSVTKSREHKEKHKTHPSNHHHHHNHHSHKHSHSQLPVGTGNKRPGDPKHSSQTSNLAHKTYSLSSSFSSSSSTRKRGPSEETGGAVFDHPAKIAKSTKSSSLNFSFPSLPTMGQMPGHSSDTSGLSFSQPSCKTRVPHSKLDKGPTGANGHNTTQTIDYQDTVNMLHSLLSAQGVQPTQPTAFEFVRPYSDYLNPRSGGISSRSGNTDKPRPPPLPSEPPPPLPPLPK
T1 sequence (Q96SW2 whole entry): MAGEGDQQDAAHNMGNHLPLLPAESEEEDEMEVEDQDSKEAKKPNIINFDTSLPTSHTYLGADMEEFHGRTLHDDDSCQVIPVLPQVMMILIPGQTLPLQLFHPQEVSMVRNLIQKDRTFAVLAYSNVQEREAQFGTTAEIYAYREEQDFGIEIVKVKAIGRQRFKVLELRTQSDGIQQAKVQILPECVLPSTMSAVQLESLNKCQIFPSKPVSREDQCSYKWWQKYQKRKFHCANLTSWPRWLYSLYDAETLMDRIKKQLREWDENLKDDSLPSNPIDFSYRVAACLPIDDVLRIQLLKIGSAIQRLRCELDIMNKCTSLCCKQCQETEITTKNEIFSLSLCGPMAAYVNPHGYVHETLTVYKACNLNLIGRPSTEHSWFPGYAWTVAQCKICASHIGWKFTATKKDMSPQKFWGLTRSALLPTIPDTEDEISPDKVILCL
T1 sequence (Q16531 whole entry partner): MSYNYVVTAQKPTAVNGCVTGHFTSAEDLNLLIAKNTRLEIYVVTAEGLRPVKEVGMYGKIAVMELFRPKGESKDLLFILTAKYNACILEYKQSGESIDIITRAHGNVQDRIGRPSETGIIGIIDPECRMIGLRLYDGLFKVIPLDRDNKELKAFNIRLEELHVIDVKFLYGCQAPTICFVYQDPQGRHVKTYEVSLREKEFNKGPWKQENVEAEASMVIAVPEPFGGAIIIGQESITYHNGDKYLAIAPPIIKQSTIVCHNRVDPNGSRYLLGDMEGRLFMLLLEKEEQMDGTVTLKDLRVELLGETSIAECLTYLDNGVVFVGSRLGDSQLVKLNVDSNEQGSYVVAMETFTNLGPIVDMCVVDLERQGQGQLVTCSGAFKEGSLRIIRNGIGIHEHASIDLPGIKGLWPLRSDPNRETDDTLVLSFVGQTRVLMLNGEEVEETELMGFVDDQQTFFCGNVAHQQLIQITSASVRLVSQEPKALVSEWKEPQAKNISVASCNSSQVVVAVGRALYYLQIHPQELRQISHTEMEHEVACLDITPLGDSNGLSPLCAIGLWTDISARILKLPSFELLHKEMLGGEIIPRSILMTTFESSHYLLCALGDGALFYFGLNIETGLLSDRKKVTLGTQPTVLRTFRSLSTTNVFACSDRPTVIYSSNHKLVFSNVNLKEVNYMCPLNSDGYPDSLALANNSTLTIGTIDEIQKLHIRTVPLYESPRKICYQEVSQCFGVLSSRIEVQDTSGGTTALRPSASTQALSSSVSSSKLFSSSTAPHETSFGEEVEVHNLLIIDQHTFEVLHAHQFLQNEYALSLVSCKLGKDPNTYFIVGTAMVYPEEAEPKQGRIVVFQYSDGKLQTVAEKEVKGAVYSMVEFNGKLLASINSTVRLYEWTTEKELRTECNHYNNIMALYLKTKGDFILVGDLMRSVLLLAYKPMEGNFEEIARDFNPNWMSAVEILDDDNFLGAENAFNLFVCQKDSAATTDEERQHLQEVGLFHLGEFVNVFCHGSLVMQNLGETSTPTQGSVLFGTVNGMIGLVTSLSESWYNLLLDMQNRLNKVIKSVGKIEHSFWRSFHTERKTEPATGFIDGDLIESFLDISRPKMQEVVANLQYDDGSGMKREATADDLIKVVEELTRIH
Procedure: as §1

[2] = Chromatographic log D determination (log k′80); type: physicochemical; conditions: chromatographic log D, PLRP-S column, pH 7.72
Procedure: Chromatographic Log D Determination. Test samples were prepared from 10 mM stock solutions in DMSO, to make 122 μM solutions in acetonitrile. Retention times were determined on a Shimadzu High Performance Liquid Chromatography (HPLC) system with Agilent PLRP-S column, 100 Å, 5 um particle size, 50×4.6 mm (part no.: PL1512-1500) with 1 mL/min flow rate. A 65 mM aqueous solution of ammonium acetate was prepared in water and diluted with acetonitrile to give 0.1% ammonium acetate 20:80 acetonitrile solution with pH 7.72. Eluents were detected with UV spectrophotometry at 337 nm. As a standard set, the retention times of β-estradiol, nifedipine, quinoline, phenol and 2-nitrophenol were determined (log k′80) and the dead time was extrapolated based on the reported log k′80 values originally reported by Caron et. al (log k′80*). The average value of the dead time for the standard set was 0.3001 minutes. Therefore, for consistency, 0.3 minutes was used as the dead time for all test samples. Experiments were performed in triplicate with a maximum percent standard deviation of 6.85%.

[3] = pH 7.4
Procedure: (§3) Kinetic Solubility Assay. Kinetic solubility (KS) was measured according to Millipore protocol PC2445 EN00. Test compounds were weighed and diluted with DMSO to 10 mM. From the stock solutions as well as blank (100% DMSO) was taken 17.5 μL and diluted to 500 μM with 332.5 μL of 100 mM phosphate Buffered Saline (PPBS) at pH 7.4 in a 96-well quartz plate. From the 500 μM solutions was taken 150 μL and dispensed into a 96-well Millipore filter plate (Product number: MSSLBPC10). In the quartz plate, serial dilutions were performed down to 0.5 μM using the 100 mM PBS solution, leaving 100 μL of each test sample at 11 different concentrations, representing standards. These steps were performed in triplicate, at minimum, for each test compound. Both plates were shaken on an orbital shaker at 150 rpm for 1.5 hours. The contents of the filter plate were filtered and 100 μL of the filtrate from each well was dispensed into the quartz plate containing standards. The quartz plate was then analyzed using a UV plate reader where absorbance was measured at the relevant wavelength for each compound. After blank subtraction, for each test sample, solubility was determined based on the optical density of filtered samples and the equations derived from the corresponding linear standard curve.

MOLM13 cells [4] = experiment: Cytotoxicity against MOLM13 cells; type: cell-based
Text: (§2) Through amide coupling using I-ethyl-3-carbodiimide hydrochloride (EDC.HCl), the alkynyl derivatives of 4.16, 4.29 and 4.30 were synthesized. Using these VIP152-derivatives, degraders 4.31, 4.33 and 4.34 were synthesized using click chemistry. Degrader 4.32 was also synthesized using amide coupling conditions with (1-[Bis([…])methylene]-1H-1,2,3-triazolo[4,5-b]pyridinium 3-oxide hexafluorophosphate (HATU) and the carboxylic acid 4.28. Scheme 7 illustrates the synthesis of this initial series. The series was evaluated for cytotoxicity against MOLM13 cells (IC50) and for their CDK9 degradation potency (DC50). The results are provided in Table 3.

CDK9 [5] = molecular target: T1, CDK9; experiment: CDK9 degradation potency (DC50) of VIP152-based degraders; type: cell-based; conditions: VIP152-based series
Text: as §2

MOLM13 cells [6] = experiment: Protein shift experiment, cytotoxicity in FBS vs human serum, MOLM13; type: cell-based
Text: In order to determine the suitability of the lead compounds for advanced biological studies, the four degraders (4.49, 4.62, 4.72 and 4.78) were selected for a protein-shift analysis due to their higher potency and solubility.

Kinetic solubility assay = conditions: kinetic solubility, PBS pH 7.4; for solubility at 1.5 h: phosphate buffered saline, pH 7.4, aqueous buffer, kinetic from dmso stock, Solubility (μM)
Procedure: as §3

[7] = growth inhibition, MV411 cells, MTS, read-out: IC50
[8] = Homo sapiens, MOLM-13, cytotoxicity, MOLM13 cells, read-out: IC50
[9] = Homo sapiens, MOLM-13, MOLM13, fetal bovine serum, read-out: IC50 (μM) FBS
[10] = MOLM-13, MOLM13, human serum, read-out: IC50 (μM) HS
[11] = Homo sapiens, MV4-11, defined as log(nM IC50), MV411, read-out: pIC50 (converted)
[12] = Homo sapiens, MV4-11, growth inhibition, MV411 cells, MTS, read-out: IC50
[13] = cytotoxicity, MOLM13 cells, read-out: IC50
[14] = MOLM13, fetal bovine serum, read-out: IC50 (μM) FBS
[15] = MOLM13, human serum, read-out: IC50 (μM) HS

Structure (SMILES) | DC50 (CDK9 [1]) [µM] | Dmax (%) (CDK9 [1]) | logk′80 [2] | Solubility [3] [µM] | DC50 (CDK9 [5]) [µM] | solubility at 1.5 h (Kinetic solubility assay) [µM] | Solubility (Kinetic solubility assay) | pIC50 (MV411 cells; defined as log(nM IC50), MV411) | IC50 (MV411 cells; [7]) [nM] | IC50 (MOLM13 cells [4]; [8]) [µM] | IC50 (MOLM13 cells [6]; [9]) [µM] | IC50 (MOLM13 cells [6]; [10]) [µM] | further results
O=C1CCC(N2C(=O)c3cccc(OCCCn4cc(CCCCCN5CCC(NC(=O)c6n[nH]cc6NC(=O)c6c(Cl)cccc6Cl)CC5)nn4)c3C2=O)C(=O)N1 (centres unmarked) [Compound 4.7c, 4-(2,6-dichlorobenzamido)-N-(1-(5-(1-(3-((2-(2,6-dioxopiperidin-3-yl)-1,3-dioxoisoindolin-4-yl)oxy)propyl)-11H-1,2,3-triazol-4-yl)pentyl)piperidin-4-yl)-1H-pyrazole-3-carboxamide] | 0.404 | 58.6 | 0.106 | 31.3 (≈ 26.1 µg/mL) |  |  |  | 2.3 | 194 |  |  |  | 
O=C1CCC(N2C(=O)c3cccc(OCCCCn4cc(CCCCN5CCC(NC(=O)c6n[nH]cc6NC(=O)c6c(Cl)cccc6Cl)CC5)nn4)c3C2=O)C(=O)N1 (centres unmarked) [Compound 4.7a, 4-(2,6-dichlorobenzamido)-N-(1-(4-(1-(4-((2-(2,6-dioxopiperidin-3-yl)-1,3-dioxoisoindolin-4-yl)oxy)buty)-1H-1,2,3-triazol-4-yl)butyl)piperidin-4-yl)-1H-pyrazole-3-carboxamide] | 0.13 | 67.5 | 0.100 | 12.4 (≈ 10.3 µg/mL) |  |  |  | 2.4 | 241 |  |  |  | 
O=C1CCC(N2C(=O)c3cccc(OCCCCCCCn4cc(CCCCCCN5CCC(NC(=O)c6n[nH]cc6NC(=O)c6c(Cl)cccc6Cl)CC5)nn4)c3C2=O)C(=O)N1 (centres unmarked) [Compound 4.9a, 4-(2,6-dichlorobenzamido)-N-(1-(6-(1-(7-((2-(2,6-dioxopiperidine-3-yl)-1,3-dioxoisoindolin-4-yl)oxy)heptyl)-1H-1,2,3-triazol-4-yl)hexyl)piperidin-4-yl)-1H-pyrazole-3-carboxamide] | 0.0746 |  | 0.184 |  |  | 2.38 (≈ 2.15 µg/mL) |  |  |  |  |  |  | IC50 (MV411 cells; [11]): 79.4 nM; IC50 (MV411 cells; [12]): 72.8 nM; Dmax (CDK9 [1]): 86.2%
O=C1CCC(N2C(=O)c3cccc(OCCCn4cc(CCCCCCN5CCC(NC(=O)c6n[nH]cc6NC(=O)c6c(Cl)cccc6Cl)CC5)nn4)c3C2=O)C(=O)N1 (centres unmarked) [Compound 4.8c, 4-(2,6-dichlorobenzamido)-N-(1-(6-(1-(3-((2(2,6-dioxopiperidin-3-yl)-1,3-dioxoisoindolin-4-yl)oxy)propyl)-1H-1,2,3-triazol-4-yl)hexyl)piperidin-4-yl)-1H-pyrazole-3-carboxamide] | 0.0989 |  | 0.116 |  |  | 12.9 (≈ 10.9 µg/mL) |  |  |  |  |  |  | IC50 (MV411 cells; [11]): 79.4 nM; IC50 (MV411 cells; [12]): 71.3 nM; Dmax (CDK9 [1]): 75.3%
O=C1CCC(N2C(=O)c3cccc(OCCCCn4cc(CCCCCN5CCC(NC(=O)c6n[nH]cc6NC(=O)c6c(Cl)cccc6Cl)CC5)nn4)c3C2=O)C(=O)N1 (centres unmarked) [Compound 4.8b, 4-(2,6-dichlorobenzamido)-N-(1-(5-(1-(4-((2-(2,6-dioxopiperidin-3-yl)-1,3-dioxoisoindolin-4-yl)oxy)butyl)-1H-1,2,3-triazol-4-yl)pentyl)piperidin-4-yl)-1H-pyrazole-3-carboxanmide] | 0.951 | 68.5 | 0.112 | 13.2 (≈ 11.2 µg/mL) |  |  |  | 2.1 | 130 |  |  |  | 
COc1cc(F)ccc1-c1cc(Nc2cc(CS(C)(=O)=NC(=O)C3CCCN(Cc4cn(C5CN(C(=O)CNc6cccc7c6C(=O)N(C6CCC(=O)NC6=O)C7=O)C5)nn4)C3)ccn2)ncc1F (centres unmarked) [Compound 4.62] |  |  | 0.11 |  | 0.15 |  | 13.8 µM (≈ 13.3 µg/mL) |  |  |  |  |  | IC50 (MOLM13 cells [4]; [13]): 0.36 µM; IC50 (MOLM13 cells [6]; [14]): 0.49 µM; IC50 (MOLM13 cells [6]; [15]): 1.34 µM

Further lines, with some results ahead:

DC50 (CDK9 [1]) [µM] | Dmax (%) (CDK9 [1]) | logk′80 [2] | Solubility [3] [µM] | DC50 (CDK9 [5]) [µM] | solubility at 1.5 h (Kinetic solubility assay) [µM] | Solubility (Kinetic solubility assay) | Structure (SMILES) | pIC50 (MV411 cells; defined as log(nM IC50), MV411) | IC50 (MV411 cells; [7]) [nM] | IC50 (MOLM13 cells [4]; [8]) [µM] | IC50 (MOLM13 cells [6]; [9]) [µM] | IC50 (MOLM13 cells [6]; [10]) [µM] | further results
 |  | 0.13 and 0.16 |  | 0.07 | 5.2 (≈ 4.76 µg/mL) |  | COc1cc(F)ccc1-c1cc(Nc2cc(CS(C)(=O)=NC(=O)CCc3cn(CCOCCOCCOc4cccc5c4C(=O)N(C4CCC(=O)NC4=O)C5=O)nn3)ccn2)ncc1F (centres unmarked) [Compound 4.34, 3-(1-(2-(2-(2-((2-(2,6-dioxopiperidin-3-yl)-1,3-dioxoisoindolin-4-yl)oxy)ethoxy)ethoxy)ethyl)-1H-1,2,3-triazol-4-yl)-N-(((2-((5-fluoro-4-(4-fluoro-2-methoxyphenyl)pyridin-2-yl)amino)pyridin-4-yl)methyl)(methyl)(oxo)-16-sulfaneylidene)propenamide] |  |  | 0.06 | 0.29 | 1.52 | 
 |  | 0.18 |  | 0.82 | 28.9 (≈ 26.4 µg/mL) |  | COc1cc(F)ccc1-c1cc(Nc2cc(CS(C)(=O)=NC(=O)CN3CCC(CN4CCC(COc5cccc6c5C(=O)N(C5CCC(=O)NC5=O)C6=O)CC4)CC3)ccn2)ncc1F (centres unmarked) [Compound 4.78, 2-(4-{[4-({[2-(2,6-dioxopiperidin-3-yl)-1,3-dioxo-2,3-dihydro-1H-isoindol-4-yl]-oxy}methyl)piperidin-1-yl]methyl}piperidin-1-yl)-N-{[(2-{[5-fluoro-4-(4-fluoro-2-methoxyphenyl)pyridin-2-yl]amino}pyridin-4-yl)methyl](methyl)oxo-λ^6-sulfanylidene}acetamide] |  |  | 0.41 | 0.52 | 0.49 | 
 |  | 0.11 |  | 0.21 |  | 16 µM and 15.7 µM | COc1cc(F)ccc1-c1cc(Nc2cc(CS(C)(=O)=NC(=O)CN3CCC(c4cn(CC(=O)N5CCN(CCCc6cccc7c6C(=O)N(C6CCC(=O)NC6=O)C7=O)CC5)nn4)CC3)ccn2)ncc1F (centres unmarked) [Compound 4.72, 2-(4-(1-(2-(4-(3-(2-(2,6-dioxopiperidin-3-yl)-1,3-dioxoisoindolin-4-yl)propyl)piperazin-1-yl)-2-oxoethyl)-1H-1,2,3-triazol-4-yl)piperidin-1-yl)-N-(((2-((5-fluoro-4-(4-fluoro-2-methoxyphenyl)pyridin-2-yl)amino)pyridin-4-yl)methyl)(methyl) (oxo)-16-sulfaneylidene) acetamide] |  |  |  |  |  | IC50 (MOLM13 cells [4]; MOLM13, read-out: potency): 0.15 µM; IC50 (MOLM13 cells [4]; [13]): 0.18 µM; IC50 (MOLM13 cells [6]; [14]): 0.47 µM; IC50 (MOLM13 cells [6]; [15]): 0.55 µM
 |  |  |  | 0.22 | ~60 (≈ 58.8 µg/mL) | 58.2 µM (≈ 57 µg/mL) | COc1cc(F)ccc1-c1cc(Nc2cc(CS(C)(=O)=NC(=O)CN3CCN(Cc4cn(C5CN(C(=O)CNc6cccc7c6C(=O)N(C6CCC(=O)NC6=O)C7=O)C5)nn4)CC3)ccn2)ncc1F (centres unmarked) [Compound 4.49, 2-(4-((1-(1-((2-(2,6-dioxopiperidin-3-yl)-1,3-dioxoisoindolin-4-yl)glycyl)azetidin-3-yl)-1H-1,2,3-triazol-4-yl)methyl)piperazin-1-yl)-N-(((2-((5-fluoro-4-(4-fluoro-2-methoxyphenyl)pyridin-2-yl)amino)pyridin-4-yl)methyl)(methyl) (oxo)-16-sulfaneylidene) acetamide] |  |  | 0.42 | 0.67 | 1.24 | IC50 (MOLM13 cells [4]; Homo sapiens, MOLM-13, text, MOLM13, read-out: potency): 0.42 µM
